Data reported in the NIST ThermoML archive (doi:10.1016/j.jct.2019.02.026).

Details: Liquid, Falling or rolling sphere viscometry

CCCCCCC(=O)OC [methyl heptanoate]
Details	viscosity [mPa·s]
292.04 K, 30028 kPa	1.5
292.56 K, 25040 kPa	1.42
292.87 K, 19994 kPa	1.35
293.58 K, 14994 kPa	1.28
293.85 K, 9970 kPa	1.22
294.13 K, 4967 kPa	1.17
294.2 K, 107 kPa	1.11
302.83 K, 29961 kPa	1.24
302.93 K, 25017 kPa	1.2
303.02 K, 19985 kPa	1.15
303.05 K, 14993 kPa	1.1
303.08 K, 10026 kPa	1.05
303.12 K, 5011 kPa	1
303.15 K, 102 kPa	0.95
312.49 K, 29986 kPa	1.09
312.57 K, 25001 kPa	1.05
312.62 K, 20047 kPa	1.01
312.65 K, 10009 kPa	0.92
312.66 K, 15001 kPa	0.97
312.77 K, 103 kPa	0.83
312.78 K, 5010 kPa	0.88
322.09 K, 29925 kPa	0.97
322.17 K, 19955 kPa	0.89
322.21 K, 15004 kPa	0.85
322.23 K, 10018 kPa	0.81
322.23 K, 25027 kPa	0.93
322.26 K, 5004 kPa	0.77
322.33 K, 96 kPa	0.73
331.56 K, 30001 kPa	0.87
331.67 K, 19865 kPa	0.8
331.68 K, 25041 kPa	0.83
331.74 K, 15035 kPa	0.76
331.78 K, 5007 kPa	0.69
331.78 K, 9972 kPa	0.72
331.85 K, 99 kPa	0.65
341.48 K, 14961 kPa	0.69
341.67 K, 96 kPa	0.58
341.68 K, 10141 kPa	0.65
341.72 K, 5062 kPa	0.62
341.73 K, 29980 kPa	0.78
341.8 K, 25032 kPa	0.75
341.81 K, 20048 kPa	0.72
351.26 K, 14966 kPa	0.61
351.27 K, 10077 kPa	0.58
351.31 K, 19977 kPa	0.64
351.46 K, 30010 kPa	0.7
351.49 K, 24997 kPa	0.67
361.24 K, 29993 kPa	0.64
361.37 K, 20002 kPa	0.58
361.47 K, 25022 kPa	0.61

CCCCCCCCC(=O)OC [methyl nonanoate]
Details	viscosity [mPa·s]
297.15 K, 30034 kPa	2.11
297.5 K, 24979 kPa	2.01
297.81 K, 20011 kPa	1.93
298.08 K, 14977 kPa	1.83
298.42 K, 9955 kPa	1.73
298.77 K, 4957 kPa	1.65
299.19 K, 103 kPa	1.56
302.91 K, 24994 kPa	1.83
302.95 K, 30000 kPa	1.91
303.01 K, 9972 kPa	1.62
303.08 K, 4961 kPa	1.54
303.09 K, 15047 kPa	1.68
303.09 K, 19964 kPa	1.76
303.1 K, 106 kPa	1.46
312.06 K, 29961 kPa	1.65
312.19 K, 25005 kPa	1.57
312.27 K, 19968 kPa	1.5
312.28 K, 9996 kPa	1.38
312.28 K, 14963 kPa	1.43
312.32 K, 4993 kPa	1.32
312.38 K, 99 kPa	1.26
321.26 K, 29949 kPa	1.42
321.36 K, 24985 kPa	1.36
321.49 K, 19988 kPa	1.31
321.56 K, 10020 kPa	1.2
321.6 K, 4982 kPa	1.14
321.61 K, 15017 kPa	1.25
321.64 K, 96 kPa	1.08
330.93 K, 30013 kPa	1.24
330.94 K, 19996 kPa	1.14
331.13 K, 9979 kPa	1.04
331.13 K, 25032 kPa	1.19
331.2 K, 14998 kPa	1.09
331.23 K, 5027 kPa	0.99
331.26 K, 108 kPa	0.94
340.91 K, 19959 kPa	0.99
340.95 K, 25015 kPa	1.04
340.96 K, 30009 kPa	1.08
341.03 K, 4962 kPa	0.86
341.06 K, 10010 kPa	0.91
341.14 K, 15019 kPa	0.94
341.21 K, 96 kPa	0.81
350.73 K, 29961 kPa	0.96
350.74 K, 24964 kPa	0.92
350.81 K, 14959 kPa	0.83
350.86 K, 20020 kPa	0.87
350.88 K, 9984 kPa	0.79
350.95 K, 4985 kPa	0.75
351.04 K, 101 kPa	0.71
360.61 K, 25005 kPa	0.82
360.67 K, 29996 kPa	0.85
360.71 K, 19982 kPa	0.77
360.82 K, 9960 kPa	0.7
360.86 K, 4959 kPa	0.66
360.89 K, 14997 kPa	0.74
360.96 K, 98 kPa	0.62
